Data published in the supplement of paper PMC10307832.

Key:
Experiment in all cases: relative viability (nuclei count vs DMSO), 5 days (fraction); higher = more cells survive
[1] = compound: CCN(CCO)CCCC(C)Nc1ccnc2cc(Cl)ccc12 [Hydroxychloroquine] + COc1cc2c(Oc3ccc(NC(=O)C4(C(=O)Nc5ccc(F)cc5)CC4)cc3F)ccnc2cc1OCCCN1CCOCC1 [Foretinib] (partner 0.25 µM)
How it was run: (§1)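 The day after seeding in 1536-well plates, lung cancer cell lines were treated by pin tool with a single drug, or with a fixed anchor-drug dose together with five library-drug doses (not always all listed) in √10 steps. After 5 days, a combined fix-and-stain solution (final 0.05% Triton X-100, 1% formaldehyde, 1 ug/ml Hoechst) was added. Nuclei counted on 4× images gave relative viability as treated counts over vehicle counts, reported as the median of duplicate plates.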

[2] = compound: CCN(CCO)CCCC(C)Nc1ccnc2cc(Cl)ccc12 [Hydroxychloroquine] + NC(=O)Nc1cc(-c2cccc(F)c2)sc1C(=O)N[C@H]1CCCNC1 [AZD7762] (partner 0.2 µM)
How it was run: as §1

[3] = compound: CCN(CCO)CCCC(C)Nc1ccnc2cc(Cl)ccc12 [Hydroxychloroquine] + O=C(CCCCCCC(=O)Nc1ccccc1)NO [Vorinostat] (partner 1 µM)
How it was run: as §1

[4] = compound: CCN(CCO)CCCC(C)Nc1ccnc2cc(Cl)ccc12 [Hydroxychloroquine] + CS(=O)(=O)N1CCN(Cc2cc3nc(-c4cccc5[nH]ncc45)nc(N4CCOCC4)c3s2)CC1 [Pictilisib] (partner 1 µM)
How it was run: as §1

| Cell Line | relative viability ([1]; first compound 0.5 µM) | relative viability ([1]; first compound 1.581 µM) | relative viability ([1]; first compound 5 µM) | relative viability ([1]; first compound 15.81 µM) | relative viability ([1]; first compound 50 µM) | relative viability ([2]; first compound 0.5 µM) | relative viability ([2]; first compound 1.581 µM) | relative viability ([2]; first compound 5 µM) | relative viability ([2]; first compound 15.81 µM) | relative viability ([2]; first compound 50 µM) | relative viability ([3]; first compound 0.5 µM) | relative viability ([3]; first compound 1.581 µM) | relative viability ([3]; first compound 5 µM) | relative viability ([3]; first compound 15.81 µM) | relative viability ([3]; first compound 50 µM) | relative viability ([4]; first compound 0.5 µM) | relative viability ([4]; first compound 1.581 µM) | relative viability ([4]; first compound 5 µM) | relative viability ([4]; first compound 15.81 µM) | relative viability ([4]; first compound 50 µM) |
| --- | --- | --- | --- | --- | --- | --- | --- | --- | --- | --- | --- | --- | --- | --- | --- | --- | --- | --- | --- | --- |
| PC-14 | 0.909 | 0.987 | 1.01 | 0.972 | 0.962 | 0.3 | 0.459 | 0.31 | 0.302 | 0.406 | 0.672 | 0.583 | 0.753 | 0.687 | 0.781 | 0.7 | 0.687 | 0.683 | 0.595 | 0.78 |
| PC-3 [JPC-3] | 1.07 | 1.14 | 0.99 | 1.02 | 1.07 | 0.905 | 0.882 | 0.652 | 0.727 | 0.774 | 0.918 | 0.847 | 0.652 | 0.737 | 0.782 | 0.79 | 0.696 | 0.693 | 0.674 | 0.784 |
| LK-2 | 1.31 | 1.41 | – | 1.28 | 0.955 | 0.424 | 0.334 | 0.447 | 0.411 | 0.312 | 0.318 | 0.274 | 0.248 | 0.299 | 0.294 | 0.607 | – | 0.58 | 0.62 | 0.558 |
| NCI-H1944 | 0.951 | 0.936 | 0.775 | 0.89 | 0.785 | 0.828 | 0.75 | 0.513 | 0.432 | 0.455 | 0.553 | 0.487 | 0.46 | 0.478 | 0.56 | 0.309 | 0.293 | 0.326 | 0.325 | 0.382 |
| HCC-78 | 0.602 | 0.498 | 0.482 | 0.488 | 0.553 | 0.595 | 0.754 | 0.605 | 0.661 | 0.641 | 0.632 | 0.381 | 0.438 | 0.446 | 0.509 | 0.21 | 0.176 | 0.221 | 0.224 | 0.165 |
| NCI-H2405 | 1.11 | 0.975 | 1.05 | 1.02 | 1.05 | 0.879 | 0.841 | 0.717 | 0.675 | 0.768 | 1.05 | 0.963 | 0.937 | 1.03 | 0.999 | 0.471 | 0.346 | 0.416 | 0.466 | 0.541 |
| EMC-BAC-2 | 0.998 | 0.877 | 1.08 | 0.941 | 0.985 | 1.12 | 0.887 | 1.01 | 1.07 | 1.11 | 0.492 | 0.443 | 0.375 | 0.425 | 0.328 | 0.593 | 0.417 | 0.547 | 0.55 | 0.612 |
| NCI-H647 | 1.25 | 1.16 | 1.18 | 1.39 | 1.25 | 0.542 | 0.455 | 0.423 | 0.252 | 0.373 | 0.662 | 0.704 | 0.603 | 0.616 | 0.612 | 0.514 | 0.323 | 0.335 | 0.357 | 0.476 |
| LCLC-97TM1 | 0.989 | 0.934 | 0.979 | 0.983 | 1.01 | 0.373 | 0.499 | 0.245 | 0.119 | 0.363 | 0.778 | 0.742 | 0.772 | 0.766 | 0.797 | 0.265 | 0.183 | 0.277 | 0.182 | 0.131 |
| H3255 | 0.924 | 0.84 | 0.818 | 0.783 | 0.798 | 0.857 | 0.897 | 0.875 | 0.882 | 0.891 | 0.741 | 0.715 | 0.716 | 0.858 | 0.762 | 0.513 | 0.517 | 0.462 | 0.474 | 0.507 |
| LXF-289 | 0.96 | 0.959 | 0.969 | 1.03 | 1.08 | 1.01 | 1.08 | 1.05 | 1.06 | 1.17 | 0.767 | 0.795 | 0.723 | 0.757 | 0.709 | 0.765 | 0.819 | 0.797 | 0.736 | 0.769 |
| NCI-H441 | 0.919 | 1.07 | 1.02 | 1.02 | 0.861 | 1.16 | 1.47 | 1.25 | 1.5 | 1.11 | 0.734 | 0.677 | 0.781 | 1.07 | 0.693 | 0.488 | 0.532 | 0.535 | 0.38 | 0.428 |
| LC-2-ad | 0.956 | 0.895 | 0.895 | 0.921 | 1.05 | 0.898 | 0.822 | 0.842 | 0.832 | 0.85 | 0.707 | 0.691 | 0.694 | 0.702 | 0.697 | 0.321 | 0.395 | 0.463 | 0.546 | 0.436 |
| A-427 | 1.05 | 1.09 | 0.974 | 1.15 | 1.16 | 0.727 | 0.802 | 0.769 | 0.696 | 0.671 | 0.919 | 0.826 | 0.834 | 0.807 | 0.79 | 0.713 | 0.624 | 0.674 | 0.585 | 0.628 |
| NCI-H322M | 1 | 0.937 | 0.934 | 1.03 | 0.935 | 0.681 | 0.433 | 0.447 | 0.487 | 0.482 | 0.849 | 0.877 | 0.83 | 0.839 | 0.991 | 0.533 | 0.438 | 0.475 | 0.515 | 0.524 |
| HCC-366 | 0.938 | 0.891 | 0.902 | 0.945 | 0.923 | 0.228 | 0.381 | 0.289 | 0.235 | 0.384 | 0.339 | 0.232 | 0.301 | 0.338 | 0.434 | 0.202 | 0.13 | 0.198 | 0.18 | 0.148 |
